Results taken from ChEMBL document CHEMBL4619725, “Ultrasounds-mediated 10-seconds synthesis of chalcones as potential farnesyltransferase inhibitors” (Bioorg Med Chem Lett, 2020).
Activity calls are given as the source filed them. The rule behind the calls is not given here.

System: HCT-116
Test: Cytostatic activity against human HCT116 cells assessed as growth inhibition at 10 uM incubated for 48 hrs by sulforhodamine B assay relative to control
Assay type: functional
Settings: HCT-116, 48 h, read-out: GI

SMILES	inhibition of growth at 10 µM
O=C(CC(CC(=O)c1cccs1)c1ccc(Cl)cc1Cl)c1cccs1	34.7%

System: K562
Test: Cytostatic activity against human K562 cells assessed as growth inhibition at 10 uM incubated for 48 hrs by sulforhodamine B assay relative to control
Assay type: functional
Settings: K562, 48 h, read-out: GI

SMILES	inhibition of growth at 10 µM
O=C(CC(CC(=O)c1cccs1)c1ccc(Cl)cc1Cl)c1cccs1	25%

System: LOX IMVI
Test: Cytostatic activity against human LOXIMVI cells assessed as growth inhibition at 10 uM incubated for 48 hrs by sulforhodamine B assay relative to control
Assay type: functional
Settings: read-out: GI

SMILES	inhibition of growth at 10 µM
O=C(CC(CC(=O)c1cccs1)c1ccc(Cl)cc1Cl)c1cccs1	10.9%

System: OVCAR-3
Test: Cytostatic activity against human OVCAR3 cells assessed as growth inhibition at 10 uM incubated for 48 hrs by sulforhodamine B assay relative to control
Assay type: functional
Settings: not given

SMILES	growth inhibition (GI)
O=C(CC(CC(=O)c1cccs1)c1ccc(Cl)cc1Cl)c1cccs1	inactive

System: CCRF-CEM
Test: Cytostatic activity against human CCRF-CEM cells assessed as growth inhibition at 10 uM incubated for 48 hrs by sulforhodamine B assay relative to control
Assay type: functional
Settings: read-out: GI

SMILES	inhibition of growth at 10 µM
O=C(CC(CC(=O)c1cccs1)c1ccc(Cl)cc1Cl)c1cccs1	7.9%

System: RPMI-8226
Test: Cytostatic activity against human RPMI8226 cells assessed as growth inhibition at 10 uM incubated for 48 hrs by sulforhodamine B assay relative to control
Assay type: functional
Settings: RPMI-8226, 48 h, read-out: GI

SMILES	inhibition of growth at 10 µM
O=C(CC(CC(=O)c1cccs1)c1ccc(Cl)cc1Cl)c1cccs1	17.3%

System: SW-620
Test: Cytostatic activity against human SW620 cells assessed as growth inhibition at 10 uM incubated for 48 hrs by sulforhodamine B assay relative to control
Assay type: functional
Settings: SW-620, 48 h, read-out: GI

SMILES	inhibition of growth at 10 µM
O=C(CC(CC(=O)c1cccs1)c1ccc(Cl)cc1Cl)c1cccs1	4.4%

System: MCF7
Test: Cytostatic activity against human MCF7 cells assessed as growth inhibition at 10 uM incubated for 48 hrs by sulforhodamine B assay relative to control
Assay type: functional
Settings: MCF7, 48 h, read-out: GI

SMILES	inhibition of growth at 10 µM
O=C(CC(CC(=O)c1cccs1)c1ccc(Cl)cc1Cl)c1cccs1	10.2%

Species on record: Homo sapiens
Test: Inhibition of C-terminal His6-tagged human recombinat FTase expressed in Escherichia coli BL21 RIL (DE3) cells using Dansyl-GCVLS peptide and farnesyl pyrophosphate as substrate at 100 uM measured for 15 mins by fluorimetric analysis relative to control
Settings: not given

SMILES	inhibition
O=C(/C=C/c1ccc(Cl)cc1Cl)c1cccs1	84%
O=C(CC(CC(=O)c1ccc(Cl)nc1)c1ccc(Cl)nc1)c1ccc(Cl)nc1	4%
O=C(/C=C/c1cccs1)c1cccs1	100%
O=C(CC(O)c1cccs1)c1cccs1 (racemic)	86%
O=C(/C=C/c1ccc(Cl)c(Cl)c1)c1ccc(Cl)cc1Cl	53%
O=C(/C=C/c1cccs1)c1ccc(Cl)cc1Cl	70%
CCCCCCCCCCCCCC/C(C(=O)O)=C(\C)C(=O)O [CHAETOMELLIC ACID A]	100%
O=C(CC(CC(=O)c1ccc(Cl)nc1)c1cccs1)c1ccc(Cl)nc1	19%
CCOc1ccc(C(=O)/C=C/c2cccs2)cn1	86%
O=C(/C=C/c1ccc(Cl)cc1Cl)c1ccc(Cl)cc1Cl	69%
CCOc1ccc([C@]2(O)C[C@H](c3cccs3)[C@@H](C(=O)c3ccc(Cl)nc3)[C@H](c3cccs3)[C@H]2C(=O)c2ccc(Cl)nc2)cn1	24%
O=C(CC(CC(=O)c1cccs1)c1ccc(Cl)cc1Cl)c1cccs1	0%

System: SR
Test: Cytostatic activity against human SR cells assessed as growth inhibition at 10 uM incubated for 48 hrs by sulforhodamine B assay relative to control
Assay type: functional
Settings: read-out: GI

SMILES	inhibition of growth at 10 µM
O=C(CC(CC(=O)c1cccs1)c1ccc(Cl)cc1Cl)c1cccs1	9.7%

System: not listed separately
Test: Inhibition of C-terminal His6-tagged human recombinat FTase expressed in Escherichia coli BL21 RIL (DE3) cells using Dansyl-GCVLS peptide and farnesyl pyrophosphate as substrate measured for 15 mins by fluorimetric analysis
Settings: not given

SMILES	IC50
O=C(/C=C/c1ccc(Cl)cc1Cl)c1cccs1	25.8 µM
CCOC(=O)c1cc(C(=O)/C=C/c2ccc3c(c2)Sc2ccccc2N3C)n2ccccc12	0.009 µM
O=C(/C=C/c1cccs1)c1cccs1	12 µM
O=C(CC(O)c1cccs1)c1cccs1 (racemic)	0.6 µM
O=C(/C=C/c1cccs1)c1ccc(Cl)cc1Cl	20.8 µM
CCCCCCCCCCCCCC/C(C(=O)O)=C(\C)C(=O)O [CHAETOMELLIC ACID A]	0.18 µM
CCOc1ccc(C(=O)/C=C/c2cccs2)cn1	24.9 µM
O=C(/C=C/c1ccc(Cl)cc1Cl)c1ccc(Cl)cc1Cl	38.7 µM
Cn1cncc1[C@@](N)(c1ccc(Cl)cc1)c1ccc2c(c1)c(-c1cccc(Cl)c1)cc(=O)n2C [TIPIFARNIB]	0.0079 µM

System: KM12
Test: Cytostatic activity against human KM12 cells assessed as growth inhibition at 10 uM incubated for 48 hrs by sulforhodamine B assay relative to control
Assay type: functional
Settings: KM12, 48 h, read-out: GI

SMILES	inhibition of growth at 10 µM
O=C(CC(CC(=O)c1cccs1)c1ccc(Cl)cc1Cl)c1cccs1	4.8%

System: NCI-H522
Test: Cytostatic activity against human NCI-H522 cells assessed as growth inhibition at 10 uM incubated for 48 hrs by sulforhodamine B assay relative to control
Assay type: functional
Settings: NCI-H522, 48 h, read-out: GI

SMILES	inhibition of growth at 10 µM
O=C(CC(CC(=O)c1cccs1)c1ccc(Cl)cc1Cl)c1cccs1	17.3%
